Measurements taken from patent US20250304643A1, “PEPTIDE DUAL AGONISTS OF GIPR AND GLP2R” (BAINAN BIOTECH APS, priority 2021, published 2025).

Experiments:
Format in all cases: cell-based
[1] = target: T1, human GLP-2R (Homo sapiens, UniProt O95838); assay: HitHunter cAMP assay in transiently transfected COS-7 cells, human GLP-2R; conditions: Emax normalized to highest concentration of endogenous ligand; Table 2;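 note: cells kept 30 min at 37 °C in buffer with 1 mM IBMX, then given ligand for another 30 min at 37 °C before cAMP readout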
T1 construct: host or cells: COS-7
T1 sequence (O95838 1-553): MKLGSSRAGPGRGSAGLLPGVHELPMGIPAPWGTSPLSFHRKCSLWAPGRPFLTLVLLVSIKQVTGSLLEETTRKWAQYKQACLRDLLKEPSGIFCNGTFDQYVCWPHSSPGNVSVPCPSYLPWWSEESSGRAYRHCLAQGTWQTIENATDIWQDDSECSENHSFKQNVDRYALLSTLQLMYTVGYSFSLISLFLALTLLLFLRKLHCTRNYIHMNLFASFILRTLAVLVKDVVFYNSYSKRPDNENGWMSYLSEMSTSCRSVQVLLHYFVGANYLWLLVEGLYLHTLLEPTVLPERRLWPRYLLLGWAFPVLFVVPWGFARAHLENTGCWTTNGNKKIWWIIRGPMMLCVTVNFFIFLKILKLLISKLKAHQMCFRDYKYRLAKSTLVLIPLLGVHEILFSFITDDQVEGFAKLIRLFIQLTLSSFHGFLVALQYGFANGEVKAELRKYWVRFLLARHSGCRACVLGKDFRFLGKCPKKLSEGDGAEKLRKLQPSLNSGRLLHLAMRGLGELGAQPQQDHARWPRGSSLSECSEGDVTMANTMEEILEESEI
Description: COS-7 cells were cultured at 10% CO2 and 37° C. in Dulbecco's Modified Eagle Medium (DMEM) 1885 supplemented with 10% fetal bovine serum (FBS), 2 mM glutamine, 180 units/ml penicillin, and 45 g/ml streptomycin.
The next day the assay was initiated by washing with HEPES buffered saline (HBS) and followed by an incubation step with assay buffer (HBS added 1 mM isobutyl-1-methylxanthine (IBMX)) for 30 min at 37° C. The ligands were then added and incubated for an additional 30 min at 37° C. After ligand incubation, the HitHunter® CAMP assay (Eurofins DiscoverX, Fremont, 150 USA) was carried out according to the manufacturer's instructions. Luminescence was measured by PerkinElmer™ EnVision 2014 Multilabel Reader (PerkinElmer, Waltham, MA). The potencies (EC50 values) were determined by nonlinear regression using GraphPad Prism 9 (San Diego, California, USA). Sigmoid curves were fitted logistically. The efficacies (Emax values) were determined by normalization to the highest concentration applied of the endogenous ligand for each receptor.

[2] = target: T2, human GLP-1R (Homo sapiens, UniProt P43220); assay: HitHunter cAMP assay in transiently transfected COS-7 cells, human GLP-1R; conditions: for Efficacy GLP-1R: Emax normalized to highest concentration of endogenous ligand, Table 3; for activation of hGLP-1R: fatty acid at C-terminal residue or position 16
T2 construct: host or cells: COS-7
Description: The next day the assay was initiated by washing with HEPES buffered saline (HBS) and followed by an incubation step with assay buffer (HBS added 1 mM isobutyl-1-methylxanthine (IBMX)) for 30 min at 37° C. The ligands were then added and incubated for an additional 30 min at 37° C. After ligand incubation, the HitHunter® CAMP assay (Eurofins DiscoverX, Fremont, […] USA) was carried out according to the manufacturer's instructions. Luminescence was measured by PerkinElmer™ EnVision 2014 Multilabel Reader (PerkinElmer, Waltham, MA). The potencies (EC50 values) were determined by nonlinear regression using GraphPad Prism 9 (San Diego, California, USA). Sigmoid curves were fitted logistically. The efficacies (Emax values) were determined by normalization to the highest concentration applied of the endogenous ligand for each receptor.

[3] = target: T3, human GIPR (Homo sapiens, UniProt P48546); set-up: host or cells: COS-7; conditions: Emax normalized to highest concentration of endogenous ligand; Table 2
T3 sequence (P48546 22-466): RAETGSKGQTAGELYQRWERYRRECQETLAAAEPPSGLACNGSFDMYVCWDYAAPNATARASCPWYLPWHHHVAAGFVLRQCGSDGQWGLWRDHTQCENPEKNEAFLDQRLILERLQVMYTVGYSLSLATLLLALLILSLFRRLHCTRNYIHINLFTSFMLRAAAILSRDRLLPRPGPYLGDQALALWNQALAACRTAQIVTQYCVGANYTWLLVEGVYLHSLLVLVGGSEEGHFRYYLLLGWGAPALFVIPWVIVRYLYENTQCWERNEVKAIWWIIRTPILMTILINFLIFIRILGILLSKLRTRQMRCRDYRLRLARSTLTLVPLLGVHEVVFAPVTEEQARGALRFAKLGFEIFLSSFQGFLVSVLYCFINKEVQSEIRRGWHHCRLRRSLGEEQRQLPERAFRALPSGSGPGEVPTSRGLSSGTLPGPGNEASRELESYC

T2 sequence (P43220 24-463): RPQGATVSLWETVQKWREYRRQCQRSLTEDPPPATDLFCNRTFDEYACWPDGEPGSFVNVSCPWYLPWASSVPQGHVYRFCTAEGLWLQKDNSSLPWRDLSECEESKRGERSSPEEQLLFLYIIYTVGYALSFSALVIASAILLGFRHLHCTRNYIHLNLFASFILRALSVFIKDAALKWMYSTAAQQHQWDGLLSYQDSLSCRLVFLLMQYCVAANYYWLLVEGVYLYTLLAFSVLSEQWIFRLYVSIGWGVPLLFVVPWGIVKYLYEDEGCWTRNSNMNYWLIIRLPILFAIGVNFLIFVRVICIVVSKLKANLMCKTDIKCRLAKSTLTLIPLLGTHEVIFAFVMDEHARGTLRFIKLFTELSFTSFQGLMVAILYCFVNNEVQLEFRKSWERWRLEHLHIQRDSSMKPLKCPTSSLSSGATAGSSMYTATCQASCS

(C10-diacid)H-Aib-DGTFISDYST-Aib-LDNLAARDFINWLIQTKITK-OH [Compound no. 18]
Efficacy GLP-2R [1]: 90
Efficacy GLP-1R [2]: 10
Efficacy GIPR [3]: 77

(C16)H-Aib-DGTFISDYST-Aib-LDNLAARDFINWLIQTKITK-OH [Compound no. 5]
Efficacy GLP-2R [1]: 109
Efficacy GLP-1R [2]: 6
Efficacy GIPR [3]: 111

(C16)H-Aib-DGTFISDYSTILD-Aib-LAARDFINWLIQTKITK-OH [Compound no. 6]
Efficacy GLP-2R [1]: 91
Efficacy GLP-1R [2]: 34
Efficacy GIPR [3]: 108

(C16)H-Aib-DGTFISDYSTILDNLAARDFIEWLIQTKIT-OH [Compound no. 8]
Efficacy GLP-2R [1]: 106
Efficacy GLP-1R [2]: 19
Efficacy GIPR [3]: 108

(C16)H-Aib-DGTFISDYSTILDNLAARDFIEWLIQTKITK-OH [Compound no. 7]
Efficacy GLP-2R [1]: 101
Efficacy GLP-1R [2]: 13
Efficacy GIPR [3]: 114

(C16)HADGTFISDYSTILDAibLAARDFINWLIQTKITKNDWKHNITQ [Compound no. 16]
Efficacy GLP-2R [1]: 64
Efficacy GLP-1R [2]: 2
Efficacy GIPR [3]: 99

(C16)HADGTFISDYSTILDELAARDFINWLIQTKITKNDWKHNITQ [Compound no. 48]
Efficacy GLP-2R [1]: 69
Efficacy GIPR [3]: 112

(C16)HADGTFISDYSTILDNLAAKDFINWLIQTKITK [Compound no. 45]
Efficacy GLP-2R [1]: 59
Efficacy GIPR [3]: 91

(C16)HADGTFISDYSTILDNLAARDFIEWLIQTKITKNDWKHNITQ [Compound no. 50]
Efficacy GLP-2R [1]: 70
Efficacy GIPR [3]: 101

(C16)HADGTFISDYSTILDNLAARDFINWLIATKITKNDWKHNITQ [Compound no. 52]
Efficacy GLP-2R [1]: 68

(C16)HADGTFISDYSTILDNLAARDFINWLIETKITKNDWKHNITQ [Compound no. 51]
Efficacy GLP-2R [1]: 66
Efficacy GIPR [3]: 104

(C16)HADGTFISDYSTILDNLAARDFINWLIQTKIT [Compound no. 2]
Efficacy GLP-2R [1]: 59
Efficacy GIPR [3]: 80

(C16)HADGTFISDYSTILDNLAARDFINWLIQTKITKAEWKHAITQ [Compound no. 49]
Efficacy GLP-2R [1]: 92
Efficacy GIPR [3]: 105

(C16)HADGTFISDYSTILDNLAARDFINWLLAQKITK [Compound no. 46]
Efficacy GLP-2R [1]: 82
Efficacy GIPR [3]: 98

(C16)HADGTFISDYSTILELLAARDFINWLIQTKITKNDWKHNITQ [Compound no. 15]
Efficacy GLP-2R [1]: 70
Efficacy GLP-1R [2]: 0
Efficacy GIPR [3]: 106

(C16-diacid)H-Aib-DGTFISDYST-Aib-LDALAARDFIEWLIQTKITK-OH [Compound no. 20]
Efficacy GLP-2R [1]: 88
Efficacy GIPR [3]: 93

(C16-diacid)H-Aib-DGTFISDYST-Aib-LDKLAARDFIEWLIQTKITK-OH [Compound no. 22]
Efficacy GLP-2R [1]: 95
Efficacy GIPR [3]: 91

(C16-diacid)H-Aib-DGTFISDYST-Aib-LDKLAARDFINWLIETKITK-OH [Compound no. 23]
Efficacy GLP-2R [1]: 86
Efficacy GIPR [3]: 107

(C16-diacid)H-Aib-DGTFISDYST-Aib-LDNLAAKDFINWLIQTKITKNDWKHNITQ-OH [Compound no. 42]
Efficacy GLP-2R [1]: 93

(C16-diacid)H-Aib-DGTFISDYST-Aib-LDNLAARDFINWLIQTKITK-OH [Compound no. 17]
Efficacy GLP-2R [1]: 90
Efficacy GLP-1R [2]: 5
Efficacy GIPR [3]: 98

(C16-diacid)H-Aib-DGTFISDYST-Aib-LDNLAARDFINWLIQTKITKNDWKHNITQ-OH [Compound no. 40]
Efficacy GLP-2R [1]: 96
Efficacy GIPR [3]: 94

(C16-diacid)H-Aib-EGTFISDYST-Aib-LDALAARDFINWLIQTKITKNDWKHNITQ-OH [Compound no. 41]
Efficacy GLP-2R [1]: 74
Efficacy GLP-1R [2]: 14
Efficacy GIPR [3]: 91

(C16-diacid)H-Aib-EGTFISDYST-Aib-LDKLAARDFINWLIQTKITK-OH [Compound no. 21]
Efficacy GLP-2R [1]: 58
Efficacy GLP-1R [2]: 10
Efficacy GIPR [3]: 86

(C16-diacid)H-Aib-EGTFISDYST-Aib-LDNLAAKDFINWLIQTKITKNDWKHNITQ-OH [Compound no. 43]
Efficacy GLP-2R [1]: 73
Efficacy GIPR [3]: 101

(C16-diacid)H-Aib-EGTFISDYST-Aib-LDNLAARDFINWLIQTKITK-OH [Compound no. 19]
Efficacy GLP-2R [1]: 81
Efficacy GIPR [3]: 98

(C16-diacid)HADGTFISDYSTAibLDNLAARDFINWLIQTKITKNDWKHNITQ [Compound no. 39]
Efficacy GLP-2R [1]: 78
Efficacy GIPR [3]: 99

Ac-H-Aib-DGTFISDY-K(γGlu-C16)-T-Aib-LDNLAARDFINWLIQTKITK-OH [Compound no. 34]
Efficacy GLP-2R [1]: 103
Efficacy GIPR [3]: 75

Ac-H-Aib-DGTFISDY-K(γGlu-C16)-T-Aib-LDNLAARDFINWLIQTKITKNDWKHNITQ-OH [Compound no. 38]
Efficacy GLP-2R [1]: 89
Efficacy GIPR [3]: 81

H-Aib-DG-K(γGlu- γGlu-C10)-FISDYSTILDNLAARDFINWLIQTKITK-OH [Compound no. 26]
Efficacy GLP-2R [1]: 91
Efficacy GLP-1R [2]: 14
Efficacy GIPR [3]: 80

H-Aib-DG-K(γGlu- γGlu-C16)-FISDYST-Aib-LDNLAARDFINWLIQTKITK-OH [Compound no. 28]
Efficacy GLP-2R [1]: 99
Efficacy GLP-1R [2]: 14
Efficacy GIPR [3]: 105

H-Aib-DGTF-K(γGlu-C16)-SDYSTILDNLAARDFINWLIQTKITK-OH [Compound no. 10]
Efficacy GLP-2R [1]: 23
Efficacy GLP-1R [2]: 10
Efficacy GIPR [3]: 102

H-Aib-DGTFISDY-K(γGlu-C10)-T-Aib-LDNLAARDFINWLIQTKITD-OH [Compound no. 30]
Efficacy GLP-2R [1]: 81
Efficacy GLP-1R [2]: 10
Efficacy GIPR [3]: 85

H-Aib-DGTFISDY-K(γGlu-C16)-TILDNLAARDFINWLIETKITK-OH [Compound no. 32]
Efficacy GLP-2R [1]: 84
Efficacy GIPR [3]: 89

HADGTFISDYSTAibLDK(γGlu-C18-diacid) LAARDFINWLIQTKGKK [Compound no. 62, reference compound]
activation of hGLP-1R [2]: capable of activating hGLP-1R

HADGTFISDYSTAibLDNLAARDFINWLIQTKGKKK(γGlu-C18-diacid) [Compound no. 61, reference compound]
activation of hGLP-1R [2]: capable of activating hGLP-1R

HADGTFISDYSTILDK(γGlu-C18-diacid) LAARDFINWLIQTKGKK [Compound no. 64, reference compound]
activation of hGLP-1R [2]: capable of activating hGLP-1R

HADGTFISDYSTILDNLAARDFINWLIQTKGKK(γGlu-C18-diacid) [Compound no. 60, reference compound]
activation of hGLP-1R [2]: capable of activating hGLP-1R
